Assay results from patent publication US7728032B2, “Phenoxymethylalkyne inhibitors of LTA4H for treating inflammation” (deCODE genetics ehf, priority 2006, dated 2010).
Counter-ions that a name gives are not always drawn. Like-named read-outs stand apart in the source and are kept apart here.

Experiments:
[1] = target: T1, recombinant human LTA4 hydrolase (Homo sapiens, UniProt P09960); experiment: In vitro assay testing inhibitory activity against purified recombinant human LTA4 hydrolase; assay type: biochemical; conditions: 200 nM recombinant enzyme, 2 μM LTA4, 120 sec, LTB4 formed measured by LC-MS/MS
T1 construct: A human LTA4 hydrolase full-length cDNA clone (NM_000895) was purchased from OriGene Technologies; 6xHis (own knowledge: pDEST17 adds an N-terminal His tag); made in house; host or cells: Escherichia coli BL21-AI
T1 sequence (P09960 1-611): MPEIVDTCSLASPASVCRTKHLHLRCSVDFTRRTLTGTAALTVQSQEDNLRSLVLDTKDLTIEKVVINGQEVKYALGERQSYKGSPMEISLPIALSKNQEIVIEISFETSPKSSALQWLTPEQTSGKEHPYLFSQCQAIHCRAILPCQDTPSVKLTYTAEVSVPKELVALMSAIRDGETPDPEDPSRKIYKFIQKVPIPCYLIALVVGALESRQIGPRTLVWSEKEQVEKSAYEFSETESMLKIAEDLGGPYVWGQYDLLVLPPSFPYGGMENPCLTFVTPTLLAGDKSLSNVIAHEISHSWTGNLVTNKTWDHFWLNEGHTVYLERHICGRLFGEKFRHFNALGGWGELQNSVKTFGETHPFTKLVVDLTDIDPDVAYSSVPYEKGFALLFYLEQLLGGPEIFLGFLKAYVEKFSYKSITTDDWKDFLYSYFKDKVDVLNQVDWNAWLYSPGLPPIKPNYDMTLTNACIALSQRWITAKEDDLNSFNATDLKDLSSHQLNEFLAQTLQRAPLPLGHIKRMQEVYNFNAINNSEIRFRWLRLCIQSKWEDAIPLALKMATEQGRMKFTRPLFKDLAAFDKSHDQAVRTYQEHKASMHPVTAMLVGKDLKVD
Source text: (1) In vitro assay testing inhibitory activity against purified recombinant human LTA4 hydroase:
A human LTA4 hydrolase full-length cDNA clone (NM_000895) was purchased from OriGene Technologies (Rockville, Md.). The gene was amplified by polymerase chain reaction and transferred via pDONR201 into the bacterial expression vector pDEST17 by recombination (both plasmids from Invitrogen, Carlsbad, Calif.). The resulting construct was transformed into Escherichia coli BL21-AI (Invitrogen), and expression was induced by chemical induction with arabinose. The recombinant enzyme was purified by chromatography on a FPLC system (Amersham Biosciences, Uppsala, Sweden) using immobilized metal affinity chromatography (Ni-NTA Superflow, Qiagen, Hilden, Germany) and anion exchange chromatography (MonoQ HR 10/10, Amersham Biosciences).
The compounds of the invention were incubated in a series of dilutions with 200 nM of recombinant enzyme in assay buffer (100 mM Tris-HCl, 100 mM NaCl, 5 mg/ml fatty-acid free BSA, 10% DMSO, pH 8.0) for 10 min at room temperature to allow binding between LTA4 hydrolase and the inhibitors. LTA4 was prepared by alkaline hydrolysis of LTA4 methyl ester (Biomol, Plymouth Meeting, Pa., or Cayman Chemicals, Ann Arbor, Mich.). A solution of 10 μg of the ester was dried under a nitrogen stream and redissolved in 60 μl of a solution of 80% aceton and 20% 0.25 M NaOH. After incubation for 40 min at room temperature the resulting approximately 500 μM tock of LTA4 was kept at −80° C. for no more than a few days prior to use.
Immediately before the assay, LTA4 was diluted to a concentration of 10 μM in assay buffer (without DMSO) and added to the reaction mixture to a final concentration of 2 μM to initiate the enzyme reaction. After incubation for 120 sec at room temperature, the reaction was stopped by adding 2 volumes of chilled quenching buffer, containing acetonitril with 1% acetic acid and 225 nM LTB4-d4 (Biomol). The samples were then kept at 4° C. over night to complete protein precipitation and centrifuged for 15 min at 1800 g. LTB4 formed was measured by LC-MS/MS using LTB4-d4 as an internal standard and an external LTB4 standard (Biomol) as reference. Briefly, the analyte was separated from LTB4 isomers formed by spontaneous hydrolysis of LTA4 using isocratic elution (modified protocol from Mueller et al. (1996), J. Biol. Chem. 271, 24345-24348) on a HPLC system (Waters, Milford, Mass.) and analyzed on a tandem quadrupole mass spectrometer (Waters). MRM transitions followed on 2 channels were 335.2>195.3 (LTB4) and 339.2>197.3 (LTB4-d4). Based on the amounts of LTB4 found at each inhibitor concentration, a dose-response curve was fitted to the data and an IC50 value was calculated.

[2] = tested on: ionophore-induced LTB4 production; conditions: oral administration, mouse blood ex vivo; cited from earlier work
[3] = tested on: ionophore-induced LTB4 production; conditions: oral administration, rat peritoneum in vivo; cited from earlier work
spontaneous colitis = conditions: eight weeks of treatment, primate model; cited from earlier work

Compound: C#CCOc1ccc(OC[C@H]2CCCN2)cc1 [Example 1, (R)-2-(4-Prop-2-ynyloxy-phenoxymethyl)-pyrrolidine hydrochloride]
- IC50 [1]: 5 to 20 µM

Compound: C(#Cc1ccccc1)COc1ccc(OC[C@H]2CCCN2)cc1 [Example 2, 2-[4-(3-Phenyl-prop-2-ynyloxy)-phenoxymethyl]-pyrrolidine]
- IC50 [1]: < 5 µM

Compound: Brc1ccc(C#CCOc2ccc(OC[C@H]3CCCN3)cc2)cc1 [Example 4, 2-{4-[3-(4-Bromo-phenyl)-prop-2-ynyloxy]-phenoxymethyl}-pyrrolidine hydrochloride]
- IC50 [1]: 5 to 20 µM

Compound: CC#CCOc1ccc(OCCN2CCCCC2)cc1 [Example 6, 1-[2-(4-But-2-ynyloxy-phenoxy)-ethyl]-piperidine]
- IC50 [1]: 5 to 20 µM

Compound: CN(CCCOc1ccc(Cc2ccccc2)cc1)CCC(=O)O.Cl [SC57461]
- inhibition of ionophore-induced LTB4 production [2]: inhibition
- inhibition of ionophore-induced LTB4 production [3]: inhibition
- colitis symptoms (spontaneous colitis): significantly improved

Compound: (4-{3-[4-(Pyrrolidin-2-ylmethoxy)-phenoxy]-prop-1-ynyl}-phenyl)-methanol [Example 3]
- IC50 [1]: < 5 µM
